This note sets out measurements from patent publication EP0433679A2, “Pharmaceutical compositions for inhibition of maillard's reaction” (Senju Pharmaceutical Co., Ltd., priority 1989, dated 1991).

In this assay the target is bovine serum albumine (Bos taurus, UniProt P02769). The assay can be described thus: Inhibition of furosine formation (non-enzymatic glycosylation of BSA by glucose, furosine determined by HPLC). Conditions: 672 h, pH 7.3, read-out: Inhibition rate (%).
Sequence of bovine serum albumine (P02769 25-607): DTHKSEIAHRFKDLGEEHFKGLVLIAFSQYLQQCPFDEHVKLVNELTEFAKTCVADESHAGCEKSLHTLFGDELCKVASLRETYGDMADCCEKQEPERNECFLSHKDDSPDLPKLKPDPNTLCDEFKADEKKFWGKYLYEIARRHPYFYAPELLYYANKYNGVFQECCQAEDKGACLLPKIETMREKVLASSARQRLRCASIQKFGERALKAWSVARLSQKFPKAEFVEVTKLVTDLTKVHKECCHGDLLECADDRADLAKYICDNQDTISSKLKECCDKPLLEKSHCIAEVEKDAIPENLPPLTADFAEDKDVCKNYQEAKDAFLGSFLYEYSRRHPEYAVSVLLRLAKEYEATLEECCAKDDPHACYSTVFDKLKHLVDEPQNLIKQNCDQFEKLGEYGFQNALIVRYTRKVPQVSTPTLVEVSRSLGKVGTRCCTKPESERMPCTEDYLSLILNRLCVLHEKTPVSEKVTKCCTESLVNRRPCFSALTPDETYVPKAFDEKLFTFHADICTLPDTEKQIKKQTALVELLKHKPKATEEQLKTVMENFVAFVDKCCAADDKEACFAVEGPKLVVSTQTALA

Method: The sample solutions were kept for 4 weeks at 37 °C, and the amount of furosine which was formed by non-enzymatic glycosylation was determined by HPLC according to the method of Schleicher et al. (J. Clin. Biochem., 19:81-87 (1981).] Thus, the sample solutions after reaction were dialyzed, and aliquots of 1 ml were lyophylized and then hydrolyzed by the addition of 1 ml of 6 N hydrochloric acid followed by heating at 100 °C for 20 hours. After removal of hydrochloric acid by evaporation, 1 ml of water was added to each sample, and the samples were subjected to filtration using a filter with the pore size of 0.45 µm. The filtrate was used as the sample for HPLC. ODS-120T (Toso) was used for the column and 7 mM phosphoric acid solution was used as the eluant. The absorbance peak whose ratio of peak area at 280 mm/254 mm was 3.9/1 was regarded as the peak corresponding to furosine.
Upon the area of the peak of furosine of each sample, the inhibition rate of furosine formation by the test compound was calculated as follows. Inhibition rate (%)=(c-d)+(c-n)×100 c; peak area of furosine of the control sample d; peak area of furosine of the test sample n; peak area of furosine of the normal sample

As to `N=C(N)NN` [Aminoguanidine, aminoguanidine, reference compound], the inhibition at 5000 µM turned out to be 7.5%.
Next, `O=C(O)c1cc(O)c2c(n1)C(=O)C=C(O)C2=O` [T-1]: 77.8%; `Oc1ccc(O)c2c(O)cc(C(F)(F)F)nc12` [T-2]: 79.9%.
Regarding `O=C1C=CC(=O)c2c(O)cc(C(F)(F)F)nc21` [T-3], the inhibition at 5000 µM came out at 73.4%.
Next, `COC(=O)c1cc(O)c2c(n1)C(=O)C=CC2=O` [T-4]: 92.5%; `O=C(O)c1cc(O)c2c(O)ccc(O)c2n1` [T-5]: 78.9%.
In the case of `O=C(O)c1cc(O)c2c(n1)C(=O)C=CC2=O` [T-6], the inhibition at 5000 µM stood at 76%.
For `O=C(O)c1cnc2c(c1O)C(=O)C=CC2=O` [T-7], the inhibition at 5000 µM turned out to be 79.9%.
As for `CCOC(=O)c1cnc2c(c1O)C(=O)C=CC2=O` [T-8], the inhibition at 5000 µM stood at 96.9%.
Consider `Cc1cc(O)c2c(n1)C(=O)C=CC2=O` [T-9], for which the inhibition at 5000 µM amounted to 99.5%.
`O=c1ccc2[n+]([O-])c3ccc(O)cc3oc-2c1` [T-10, resazurin]: the inhibition at 5000 µM worked out at 73.8%.

The inhibition is the change of the read-out against control, counted positive when it falls.
